Data as given in US20060083711A1, “Methods and products related to the intracellular delivery of polysaccharides” (Massachusetts Institute of Technology, priority 2004, published 2006).
Several values for one entry are separate records, joined by “and”; a condition that tells them apart may be missing. Identical values can stand only once. Entries after “also recorded” stand apart in the source; their conditions may differ. Each block holds one molecule with its values, some of them ahead of it.

Legend:
PC-3 cells = experiment: PC-3 proliferation assay (whole cell number); assay type: cell-based, human; settings: for effect of kinase inhibitor on heparin-mediated growth inhibition: 50 μM LY294002, 20 μM PD98059, 20 μM U0126, 1 μM SB203580, heparin 500 ng/ml
Method: PC-3 cells were grown until confluence in 75 cm^2 flasks. Each flask was washed with 20 ml PBS, and treated with 3 ml trypsin-EDTA at 37° C. for 3-5 minutes, until cells detached. Cells were centrifuged for 3 min at 195×g. The supernatant was aspirated, and the cells were resuspended in 10 ml media. The cell density was measured using an electronic cell counter, and the suspension was diluted to 50,000 cells/ml. The suspension was plated 1 ml/well into 24-well tissue culture plates. After a 24 hour incubation in a 5% CO2, 37° C. humidified incubator, the media was aspirated, the wells were washed with serum free media, and the cells were supplemented with media containing 0.1% FBS and incubated for 24 hours. Cells were sequentially treated with antibodies, kinase inhibitors, heparin, and FGF2. Antibodies to FGF2, FGFR1, or FGFR3 were added to yield a final dilution of 1:100. Kinase inhibitors were added sufficient to yield final concentrations of 50 μM LY294002, 20 μM PD98059, 1 μM SB203580, and 20 μM U0126. Heparin was added at 500 ng/ml unless otherwise noted. To produce heparin digests, heparin was treated with PBS, hepI, or hepIII for 30 minutes, and boiled for 30 minutes. prior to addition to cells. Digestion was verified by UV spectroscopy at 232 nm. FGF2 was added at 100 ng/ml unless otherwise specified. Cells were then incubated for 72 hours. Wells were then washed twice with PBS and treated with 0.5 ml trypsin-EDTA/well and incubated for 10 minutes at 37° C. Whole cell number was determined using an electronic cell counter. Data were averaged over three experiments, each consisting of four wells per condition.
PC-3 cells were grown until confluence in 75 cm^2 flasks. Each flask was washed with 20 ml PBS, and treated with 3 ml trypsin-EDTA at 37° C. for 3-5 minutes, until cells detached. Cells were centrifuged for 3 minutes at 195×g, the supernatant was aspirated, and the cells were resuspended in 10 ml media. The cell suspension was diluted to 50,000 cells/ml based on the readings of an electronic cell counter. The suspension was plated 1 ml/well into 24-well tissue culture plates. After a 24 hour incubation in a 5% CO2, 37° C. humidified incubator, the cells were washed with serum free media, supplemented with media containing 0.1% FBS, and incubated for 24 hours. Cells were treated with heparin, HS or FGF2 as appropriate. Heparin was added at 500 ng/ml unless otherwise noted. FGF2 was added at 100 ng/ml unless otherwise specified. Cells were then incubated for 72 hours. Wells were then washed twice with PBS and treated with 0.5 ml trypsin-EDTA/well and incubated for 10 minutes at 37° C. Whole cell number was determined using an electronic cell counter. Data were averaged over three experiments, each consisting of four wells per condition.
For antibody and kinase inhibitor experiments, antibodies and kinase inhibitors were added prior to HSGAGs or FGF2. […]
To produce heparin digests, heparin was treated with PBS, heparinase I (hepI), or hepIII for 30 minutes, and boiled for 30 prior to addition to cells. Digestion was verified and quantified by UV spectroscopy at 232 nm (27). […]
A preliminary screen was performed on PC-3 cells by proliferation assay using the nine polymers described at polymer:heparin (w/w) ratios of 10:1, 20:1, 30:1, 40:1, and 60:1. The three best formulations (polymer and ratio) were selected and analyzed further. […] In vitro assessment of polymer activity was measured by proliferation assay with a heparin concentration of 1 μg/ml. […]

Daudi cells = experiment: Whole cell proliferation assay; assay type: cell-based, human; settings: for direct effect of kinase inhibitor on Daudi whole cell number: FBS-deficient media, 50 μM LY294002, 20 μM PD98059, or 1 μM SB203580
Method: For proliferation assays using Daudi cells, cells were collected from 75 cm^2 flasks, washed three times with FBS-deficient media or proliferation media, and resuspended into 10 ml of the same media. Cells were diluted to 1×10^5 cells/ml based on the reading of an electronic cell counter, and plated 1 ml/well in 24-well plates. Wells were treated with PBS, heparin, A5, or A5-heparin conjugate in 10 μl volumes, and incubated for 72 hours at 37° C., 5% CO2. A5-heparin conjugates were additionally supplemented with 50 μM LY294002, 20 μM PD98059, or 1 μM SB203580, 50 mM sodium chlorate, or 10 ng/ml FGF2, as appropriate. Whole cell number was converted to a percent growth relative to PBS treatment. Proliferation assays on NFS-1.0 C-1 and J.CaM1.6 cells were performed as described for Daudi cells.
To probe the role of sulfation patterns and fine structure in inducing the effects of A5-heparin conjugates, heparin was partially digested with heparinases prior to conjugation. Heparin was diluted to 20 μg/ml in PBS and incubated with 5 mU/ml hepI or hepIII or an equivalent volume of PBS for 30 minutes. Digestion was confirmed by UV spectroscopy at 232 nm. Digested heparin was subsequently conjugated with A5 as described. A5 binding to the heparin fragments was confirmed using an Azure A competition assay as previously described. Daudi cells, plated as described at 1×10^5 cells/ml in 24-well plates, 1 ml/well, were treated with conjugates at a heparin concentration of 1 μg/ml or an equivalent volume of PBS. After incubating for 72 hours at 37° C., 5% CO2, the resultant whole cell count was determined by electronic cell counter, and data were converted to a percent growth relative to Daudi treated with PBS alone.
To examine the effects of protamine sulfate and heparinases on Daudi growth, cells were collected from 75 cm^2 flasks, pelletted, and resuspended into 10 ml of propagation media. Cells were diluted to 1×10^5 cells/ml based on the reading of an electronic cell counter, and plated 1 ml/well in 24-well plates. Protamine sulfate was added between 1 and 100,000 ng/ml. HepI and hepIII were added between 0.5 and 500 μU/ml for 24, 48, or 72 hours. Whole cell counts from heparinase assays were converted to percent reduction in whole cell number relative to untreated.

B16-F10 cells = experiment: Whole cell proliferation assay; assay type: cell-based, mouse; settings: 10 ng/ml FGF2
Method: Adhesion cells (B16-F10, B16-BL6, SMCs, BAECs, NIH 3T3, SK-ES-1, Panc-1, and SW-1088) were seeded in 24-well plates at 1 ml/well as well as in 6-well plates at 3 ml/well, both at a density of 5×10^4 cells/ml. The plates were incubated for 24 hours at 37° C., 5% CO2. The cells were then washed with PBS and supplemented with media as appropriate. Cells were treated with PBS, heparin, polymer, or polymer-heparin conjugate, in 10 μl quantities at appropriate concentrations. Cells were incubated at 37° C., 5% CO2 for 72 hours, after which, each well was treated with 500 μl (24 well plates) or 1 ml (6 well plates) trypsin-EDTA for 5-15 minutes at room temperature, after which 400 μl was used to count the cell number with an electronic cell counter. […] Panc-1 cells were only tested in 10% FBS. Effects of conjugate were normalized to co-treatment without conjugate.
B16-F10 cells were grown until confluent, washed with PBS, treated with 3 ml trypsin-EDTA per 75 cm^2 tissue culture flask at 37° C. for 3-5 min, pelleted, and resuspended in FBS-deficient media. Cell concentration was determined with an electronic cell counter. […] Cells were treated with PBS, heparin, A5, or A5-heparin conjugate, added in 10 μl quantities, to yield a polymer concentration of 20 μg/ml and a heparin concentration of 1 μg/ml. […]

Erk1, Erk2 in PC-3 cells = experiment: Whole cell ELISA; assay type: cell-based, human; settings: 10 ng/ml FGF2 or 500 ng/ml heparin; 5, 15, or 60 minutes
Method: (§1) ELISA was performed on whole cells to determine a quantifiable relative level of kinase activity. PC-3 cells were grown until confluence in 75 cm^2 flasks. Each flask was washed with 20 ml PBS, and treated with 3 ml trypsin-EDTA at 37° C. for 3-5 minutes, until cells detached. Cells were centrifuged for 3 min at 195×g. The supernatant was aspirated, and the cells were resuspended in 10 ml media. The cell density was measured using an electronic cell counter, and the suspension was diluted to 50,000 cells/ml. 100 mm dishes were supplemented with 10 ml cell suspension per dish. After a 24 hour incubation the media was aspirated, the dishes washed with serum free media, and the cells supplemented with media containing 0.1% FBS and incubated for 24 hours. Dishes were treated with PBS, 10 ng/ml FGF2, or 500 ng/ml heparin for 5, 15, or 60 minutes. Media was then aspirated, the cells were washed with 10 ml PBS, and each dish was treated with 5 ml Trizol reagent. Cell extract was added to 96-well plates previously incubated for 1 hour with primary antibodies to Erk1, Erk2 or phospho-Erk1/2. […] The reaction was quenched with 1 M HCl, and the plates were analyzed using a UV plate reader at 450 nm. Data were quantified by comparing to a standardized curve with varying concentrations of untreated cells.

[1] = test system: phospho-Erk1/2 in PC-3 cells; experiment: Whole cell ELISA; assay type: cell-based, human; settings: 10 ng/ml FGF2; 5, 15, or 60 minutes
Method: as §1

[2] = target: FGFR1c on PC-3 cells (human) (UniProt P11362); experiment: cell-based or functional assay
UniProt P11362, sequence (P11362 22-822): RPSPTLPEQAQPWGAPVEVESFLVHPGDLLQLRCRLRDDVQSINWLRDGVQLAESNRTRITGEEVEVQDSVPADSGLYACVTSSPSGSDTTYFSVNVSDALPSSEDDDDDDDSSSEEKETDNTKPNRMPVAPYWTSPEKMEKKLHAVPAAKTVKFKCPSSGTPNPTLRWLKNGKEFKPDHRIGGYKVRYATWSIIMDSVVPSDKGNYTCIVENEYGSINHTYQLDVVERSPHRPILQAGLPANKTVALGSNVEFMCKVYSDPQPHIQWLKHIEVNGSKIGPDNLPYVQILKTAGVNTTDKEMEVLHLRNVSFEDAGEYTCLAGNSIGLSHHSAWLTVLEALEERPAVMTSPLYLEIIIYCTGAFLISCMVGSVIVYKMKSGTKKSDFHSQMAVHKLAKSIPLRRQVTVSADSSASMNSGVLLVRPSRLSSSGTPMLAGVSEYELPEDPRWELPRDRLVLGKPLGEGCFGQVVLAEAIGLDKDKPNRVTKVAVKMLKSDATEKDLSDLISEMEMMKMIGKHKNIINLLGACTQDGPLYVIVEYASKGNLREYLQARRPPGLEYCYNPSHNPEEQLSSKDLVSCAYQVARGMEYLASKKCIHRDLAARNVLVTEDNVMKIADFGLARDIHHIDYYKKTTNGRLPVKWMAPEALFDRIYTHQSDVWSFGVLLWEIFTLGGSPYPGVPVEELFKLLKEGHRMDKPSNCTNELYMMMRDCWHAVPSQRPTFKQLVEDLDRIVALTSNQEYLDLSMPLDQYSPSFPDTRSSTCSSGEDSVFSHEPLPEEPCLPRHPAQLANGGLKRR

Molecule: COc1cccc(-c2cc(=O)c3ccccc3o2)c1N [PD98059]
- effect of kinase inhibitor on heparin-mediated growth inhibition (PC-3 cells): eliminate the ability of heparin to inhibit PC-3 growth; also recorded: prevented heparin-mediated growth inhibition
- direct effect of kinase inhibitor on Daudi whole cell number (Daudi cells): neither inhibition of PI3K with LY294002 (p>0.39) nor inhibition of Erk and Mek with PD98059 (p>0.64) had a direct effect

Molecule: C[S+]([O-])c1ccc(-c2nc(-c3ccncc3)c(-c3ccc(F)cc3)[nH]2)cc1 (stereo not drawn) [SB203580]
- effect of kinase inhibitor on heparin-mediated growth inhibition (PC-3 cells): did not eliminate the effect of heparin; also recorded: had no effect
- direct effect of kinase inhibitor on Daudi whole cell number (Daudi cells): caused a significant reduction

Molecule: N#CC(=C(/N)Sc1ccccc1N)/C(C#N)=C(/N)Sc1ccccc1N [U0126]
- effect of kinase inhibitor on heparin-mediated growth inhibition (PC-3 cells): eliminate the ability of heparin to inhibit PC-3 growth; also recorded: prevented heparin-mediated growth inhibition

Molecule: FGF2: Recombinant human FGF2
- increase in proliferation (whole cell number) (PC-3 cells; 100 ng/ml FGF2): ~15% and 15.6±3.1%
- proliferation (PC-3 cells; FGF2 doses of 50 ng/ml and lower): did not promote significant proliferation
- effect on Daudi proliferation (Daudi cells; 10 ng/ml FGF2): did not affect Daudi proliferation
- inhibition of cell number by FGF2 alone (B16-F10 cells): 26.28±7.23%
- Erk1 or Erk2 levels (Erk1, Erk2 in PC-3 cells): no significant effect
- upregulation of phospho-Erk1/2 [1]: 2-3 fold

- increase in proliferation of PC-3 cells at 100 ng/ml FGF2 [2]: 15%
- upregulation of phospho-Erk1/2 in PC-3 cells (whole cell ELISA) [2]: 2 to 3 fold
Molecule: Recombinant human FGF2 (from UniProt P09038 135-288) (ligand)

Molecule: protamine sulfate
- reduction in whole cell number (Daudi cells; protamine sulfate 1×10^5 ng/ml, media with 10% FBS, three days): 12.9±2.8%
- effect on whole cell number (Daudi cells; protamine sulfate concentrations less than 1×10^5 ng/ml, 10% FBS): no effect
